The target of series [1] is T1, FKBP (Homo sapiens, UniProt P62942).
T1 construct: made in house
The series is described as follows: Competitive fluorescence polarization (FP) assay of binding to FKBP with fluoresceinated FK506 probe AP1491.
Experimental: Serial 10-fold dilutions of each analog were prepared in 100% ethanol in glass vials and stored on ice. All other manipulations were performed at room temperature.
The plates was stored covered in the dark for approximately 30 min to permit equilibration and then the fluorescence polarization of the sample in each well read on a Jolley FPM-2 FP plate reader (Jolley Consulting and Research, Inc., Grayslake, Ill.) in accordance with the manufacturer's recommendations. The mean polarization (mP units) for each competitor concentration was usually converted to % total binding by reference to the control values and plotted (y) vs. log molar final concentration of competitor (x). Non-linear least square analysis was used to fit the curve and extract the IC50 using the following equation:
y=M1+(M4−M1)/(1+exp(M2*(M3−x)))
where M3 is the IC50. For incomplete curves the IC50 was determined by interpolation.
The affinity of the rapalogs for FKBP was assayed as described for C24 rapalogs in section A above, using competitive FP.

Series [2] in a line: Pharmacokinetics in nu/nu mice after intravenous administration. The series is classed as in vivo. The text has this: (§1) The accuracy of the dosing solutions was confirmed by HPLC analysis prior to intravenous administration into the tail veins. […] In addition, other control mice, bearing transfected cells, received only the rapamycin vehicle.
Series [3] deals with FRAP (amino acids 2015-2114) displayed on phage with His6-tagged FKBP (Homo sapiens, UniProt P42345+P62942). The series is described as follows: Binding enrichment of FRAP display phagemids on His6-flag-FKBP with compound, captured on Ni-NTA agarose. The settings on record: 1 μM His6-flag-FKBP, 2.5 μl of 100 pM compound in 250 μl, 1 hour.
Chain of FRAP (amino acids 2015-2114) displayed on phage with His6-tagged FKBP (P42345 2015-2114): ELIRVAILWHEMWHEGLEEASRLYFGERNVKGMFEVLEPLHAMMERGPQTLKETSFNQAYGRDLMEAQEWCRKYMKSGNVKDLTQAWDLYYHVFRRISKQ
Chain of FRAP (amino acids 2015-2114) displayed on phage with His6-tagged FKBP (P62942 with tags, fused parts or gaps): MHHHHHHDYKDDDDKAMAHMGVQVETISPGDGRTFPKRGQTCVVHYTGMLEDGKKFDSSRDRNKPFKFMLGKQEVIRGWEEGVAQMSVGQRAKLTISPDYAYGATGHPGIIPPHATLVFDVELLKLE
For series [4], the target named is T2, FRAP (Homo sapiens, UniProt P42345+P62942).
T2 construct: expressed in transfected cells; host or cells: HT20-6 (clone of human HT1080 fibrosarcoma cells)
T2 sequence (P42345 2025-2113): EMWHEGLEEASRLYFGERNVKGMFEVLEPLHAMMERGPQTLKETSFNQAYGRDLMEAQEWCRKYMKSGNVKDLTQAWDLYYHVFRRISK
T2 sequence (P62942 2-108): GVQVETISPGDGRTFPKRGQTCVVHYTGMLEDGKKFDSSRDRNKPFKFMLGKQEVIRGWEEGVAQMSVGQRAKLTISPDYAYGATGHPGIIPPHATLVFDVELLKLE
Briefly: SEAP reporter assay in HT20-6 cells for binding of rapalog-FKBP complexes to FRAP. Type of series: cell-based. The settings on record: serial dilutions, 22 hours, FIG. 15.
Experimental: HT20-6 cells were plated in 96-well dishes (1×10^4 cells/well) and 200 _l medium containing serial dilutions of rapalog was added to each well (in triplicate).

Series [5] addresses Lex-FKBP and Lex-FRAP proteins (Homo sapiens, UniProt P42345+P62942). The series is described as follows: Gel mobility shift assay of rapamycin-dependent DNA binding by Lex-FKBP/Lex-FRAP. The series is classed as biochemical. To be noted: increasing amounts of rapamycin, FIG. 14 lanes 2-4.
The subject of series [6] is HT1080 cells expressing myristoylated FRAP-FKBP-Fas or (FKBPx2)-Fas chimeras. The series is described as follows: Regulated apoptosis of stably transfected HT1080 cells, alamar blue viability. The series is classed as cell-based, human.
Experimental: HT1080 cells were infected with viral stock and selected with G418.
The media was removed and replaced with 100 μl of media containing 10% alamar blue dye. Plates were incubated as before, and the extent of cell viability assessed periodically by spectrophotometric determination of OD at 570 nm and 600 nm on a microtiter plate reader.
The subject of series [7] is transfected HT1080 cells. Briefly: Rapamycin-dependent production of hGH in nu/nu mice transplanted with transfected HT1080 cells. The series is classed as in vivo.
Excerpt: To transplant transiently transfected cells into mice, 2×10^6 transfected HT1080 cells, were suspended in 100 _l PBS/0.1% BSA/0.1% glucose buffer, and administered into four intramuscular sites (approximately 25 _l per site) on the haunches and flanks of the animals. Control mice received equivalent volume injections of buffer alone.
as §1
Blood was collected by either anesthetizing or sacrificing mice via CO2 inhalation. Anesthetized mice were used to collect 100 _l of blood by cardiac puncture. The mice were revived and allowed to recover for subsequent blood collections. Sacrificed mice were immediately exsanguinated. Blood samples were allowed to clot for 24 hours, at 4° C., and sera were collected following centrifugation at 1000×g for 15 minutes. Serum hGH was measured by the Boehringer Mannheim non-isotopic sandwich ELISA (Cat No.1 585 878). […] Recommended assay instructions were followed.
Mice were administered transfected HT1080 cells as described above. […] The four remaining doses were given under anesthesia, immediately subsequent to blood collection, at 16, 32, 48, and 64 hours. […]

Setting [8] is: rapamycin C24 oximes, competitive FP vs AP1491 probe, recombinant FKBP.
Where [9] appears, read: C7 rapalog experiment, competitive FP.

T1 sequence (P62942 whole entry): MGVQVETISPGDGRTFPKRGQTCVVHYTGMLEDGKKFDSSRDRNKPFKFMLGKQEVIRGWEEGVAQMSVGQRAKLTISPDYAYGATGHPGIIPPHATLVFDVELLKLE
Chain of Lex-FKBP and Lex-FRAP proteins (P62942 2-108): as the sequence (P62942 2-108) above
Chain of Lex-FKBP and Lex-FRAP proteins (P42345 2025-2113): as the sequence (P42345 2025-2113) above

`COC1CC2CCC(C)C(O)(O2)C(=O)C(=O)N2CCCCC2C(=O)OC(C(C)CC2CCC(O)C(OC)C2)CC(=NOCC(=O)O)C(C)C=C(C)C(O)C(OC)C(=O)C(C)CC(C)C=CC=CC=C1C` (stereo not drawn) [AP1686, Rapamycin (E and Z)-24-(O-carboxymethyloxime)]: the “fold loss in affinity (=IC50/IC50 of rapamycin)” value (shortened to “fold loss in affinity”) in series [1] (C24 oxime experiment) was found to be 1620. In addition, the IC50 in series [1] (setting [8]) was determined as 16200 nM.

On to `COC1CC2CCC(C)C(O)(O2)C(=O)C(=O)N2CCCCC2C(=O)OC(C(C)CC2CCC(O)C(OC)C2)CC(=NOCC(N)=O)C(C)C=C(C)C(O)C(OC)C(=O)C(C)CC(C)C=CC=CC=C1C` (single isomer, unassigned) [AP1729, Rapamycin (E and Z)-24-(O-carboxamidomethyloxime)], for which, in series [1] (C24 oxime experiment), the “fold loss in affinity” value is 304. In series [1] (setting [8]), the IC50 worked out at 2400 nM.

Consider “hGH: human growth hormone secreted by the engineered cells (reporter gene product)”, for which the “half-life of clearance from the circulation” value in series [2] is reported as “less than four minutes”.

Take `C=CC[C@@H]1/C=C(\C)C[C@H](C)C[C@H](OC)[C@H]2O[C@@](O)(C(=O)C(=O)N3CCCC[C@H]3C(=O)O[C@H](/C(C)=C/[C@@H]3CC[C@@H](O)[C@H](OC)C3)[C@H](C)[C@@H](O)CC1=O)[C@H](C)C[C@@H]2OC` [FK506]: the “enrichment of FRAP phage compared to the starting mixture” value in series [3] is 2.4 fold.

Regarding `CO[C@@H]1CC(C[C@@H](C)C2CC(=O)[C@H](C)/C=C(\C)[C@@H](O)[C@@H](OC)C(=O)[C@H](C)C[C@H](C)/C=C/C=C/C=C(\C)[C@@H](OC(C)C)C[C@@H]3CC[C@@H](C)[C@@](O)(O3)C(=O)C(=O)N3CCCC[C@H]3C(=O)O2)CC[C@H]1O` (stereo partly drawn) [AP1700, 7S-isopropoxyrapamycin], the “fold loss in affinity” value in series [1] (C7 rapalog experiment) is recorded as 2.5. Moreover, the IC50 in series [1] (setting [9]) was 17.8 nM. Also, the “FRAP affinity as indicated by SEAP production” value in series [4] is listed as “modest reduction in FRAP affinity”.

Consider `COC1CC2CCC(C)C(O)(O2)C(=O)C(=O)N2CCCCC2C(=O)OC(C(C)CC2CCC(O)C(OC)C2)CC(=NOCC(=O)O)C(C)C=C(C)C(O)C(OC)C(=O)C(C)CC(C)C=CC=CC=C1C` (stereo not drawn) [AP1687, Rapamycin (E and Z)-24-(O-carboxymethyloxime)], for which the “fold loss in affinity” value in series [1] (C24 oxime experiment) was found to be 813.

As for `CO[C@H]1C[C@@H]2CC[C@@H](C)[C@@](O)(O2)C(=O)C(=O)N2CCCC[C@H]2C(=O)O[C@H]([C@H](C)C[C@@H]2CC[C@@H](O)[C@H](OC)C2)CC(=O)[C@H](C)/C=C(\C)[C@@H](O)[C@@H](OC)C(=O)[C@H](C)C[C@H](C)/C=C/C=C/C=C/1C` [rapamycin, Rapamycin], the “formation of specific protein-DNA complex” value in series [5] is reported as “concomitant appearance of a specific complex”. In series [6] (FIG. 13(c)), the “effect on survival of cells not expressing mixed chimeric proteins” value was “minimal effects”. Besides, the “survival of cells stably transfected with M30 and M31-expressing constructs” value in series [6] (with 50 ng/ml actinomycin D, about 20 hours, FIG. 13(a),(b)) is “potently reduced”. The “enrichment of FRAP phage compared to the starting mixture” value in series [3] was found to be 271 fold. Besides, the “serum hGH production vs dose” value in series [7] (0.01-10.0 mg/kg i.v., 17 hours after administration, FIG. 6) is “dose-responsive production of hGH”. The “time of peak serum hGH after treatment” value in series [7] (single 10.0 mg/kg i.v. dose, FIG. 7) is given as “peaked at eight hours”.

With `CCC(C)(C)C(=O)C(=O)N1CCCCC1C(=O)O[C@H](CCc1ccc(OC)c(OC)c1)c1cccc(OCC(=O)NCCOCCNC(=O)COc2cccc([C@@H](CCc3ccc(OC)c(OC)c3)OC(=O)C3CCCCN3C(=O)C(=O)C(C)(C)CC)c2)c1` (stereo partly drawn) [AP1428], the “extent of cell death of cells expressing a myristoylated (FKBPx2)-Fas construct, relative to rapamycin on M30/M31 cells” value in series [6] (FIG. 13(c)) was “comparable”.

Consider `COC1CC(CC(C)C2CC(=O)C(C)C=C(C)C(O)C(OC)C(=O)C(C)CC(C)C=CC=CC=C(C)C(c3c[nH]c4ccccc34)CC3CCC(C)C(O)(O3)C(=O)C(=O)N3CCCCC3C(=O)O2)CCC1O` (stereo not drawn) [AP1702, 7S-(3-indolyl)rapamycin], for which, in series [1] (C7 rapalog experiment), the “fold loss in affinity” value is given as 3.0. For the same compound, the IC50 in series [1] (setting [9]) came to 24.5 nM. Also, the “FRAP affinity as indicated by SEAP production” value in series [4] is “almost completely abolish SEAP expression”.

Regarding “C14-desoxo-rapamycin [reference compound]”, the “fold loss in affinity” value was 20.8 in series [1] (C7 rapalog experiment) and 18.6 in series [1] (C24 oxime experiment).

With `COC1CC2CCC(C)C(O)(O2)C(=O)C(=O)N2CCCCC2C(=O)OC(C(C)CC2CCC(O)C(OC)C2)CC(=NOCC(N)=O)C(C)C=C(C)C(O)C(OC)C(=O)C(C)CC(C)C=CC=CC=C1C` (single isomer, unassigned) [AP1730, Rapamycin (E and Z)-24-(O-carboxamidomethyloxime)], in series [1] (C24 oxime experiment), the “fold loss in affinity” value was 40.5. The IC50 in series [1] (setting [8]) came to 320 nM.
